Laboratory results as given in patent US20090233999A1, “COMPOSITIONS AND THERAPEUTIC METHODS INVOLVING ISOFLAVONES AND ANALOGUES THEREOF” (NOVOGEN RESEARCH PTY LTD, priority 1999, published 2009).

Tests used:
[1] = biological target: T1, ER beta receptor (Homo sapiens, UniProt Q92731); assay: Estrogen Receptor Beta Competitor Assay Core HTS Kit (Panvera); conditions: competitive binding; kind of quantity not given; read-out: binding affinity, ER beta receptor
T1 construct: purchased Panvera Corporation P2614/2615
T1 sequence (Q92731 whole entry): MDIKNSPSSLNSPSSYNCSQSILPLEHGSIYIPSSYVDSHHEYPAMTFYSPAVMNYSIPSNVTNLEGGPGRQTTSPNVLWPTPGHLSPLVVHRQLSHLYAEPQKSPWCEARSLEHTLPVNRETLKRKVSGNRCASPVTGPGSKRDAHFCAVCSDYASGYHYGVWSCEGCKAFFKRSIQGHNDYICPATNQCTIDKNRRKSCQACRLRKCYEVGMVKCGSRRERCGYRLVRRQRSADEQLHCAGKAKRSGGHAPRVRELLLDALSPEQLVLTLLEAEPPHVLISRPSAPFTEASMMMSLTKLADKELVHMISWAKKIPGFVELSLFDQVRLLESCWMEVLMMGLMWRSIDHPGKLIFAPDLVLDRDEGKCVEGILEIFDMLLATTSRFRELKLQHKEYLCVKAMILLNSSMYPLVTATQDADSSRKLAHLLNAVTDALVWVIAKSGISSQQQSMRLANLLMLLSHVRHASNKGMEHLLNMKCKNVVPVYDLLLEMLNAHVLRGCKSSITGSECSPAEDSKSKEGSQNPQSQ
Description: The binding affinity of various compounds of the invention for both subtypes of the estrogen receptor was determined with the “Estrogen Receptor Alpha or Beta Competitor Assay Core HTS Kit” supplied by Panvera Corporation (Product No. P2614/2615).

[2] = test system: BALB/c mice (AA-induced ear swelling); conditions: regardless of route of administration; cited from earlier work
[3] = test system: rat aortic ring; assay: Rat aortic ring assay, contractile response to noradrenaline; conditions: 1 μg/ml
Description: The vasodilatory capacity was examined ex vivo using the rat aortic ring assay.
Male Sprague-Dawley rats (250±50 g) were euthanased with 80% CO2 and 20% O2. The thoracic aorta was excised and quickly mounted in organ-baths as described. Full concentration-contractile curves were obtained to noradrenaline (0.1 nM-[…]) with and without test compounds delivered at a concentration of 1 μg/ml. Experiments were repeated in n=5 different rings from 5 different animals. Only one compound at any one concentration was tested on any one ring from any one animal. Sigmoidal dose response curves were fitted for the data and the logEC50 and the Ema, calculated (Prism 4, GraphPad Software). The difference in these values between the presence and absence of test compound was calculated using a two-tailed paired t test. The effects of β-oestrodiol and vehicle alone were examined as a positive and negative control respectively.

[4] = DPPH free radical scavenging
Description: The antioxidant (free radical trapping) activity of test compounds was assessed using the stable free radical compound 2,2-diphenyl-1-picrylhydrazyl (DPPH). A stock solution of DPPH was prepared at a concentration of 0.1 mM in ethanol and mixed for 10 minutes prior to use. Test compounds at a concentration of 100 μM were reacted with DPPH for 20 minutes, after which time the absorbance at 517 nm was determined and the change in absorbance compared to a reagent blank (DPPH with ethanol alone). A dose response curve was produced for those compounds with free radical scavenging activity (ΔAbs>0.3) at 100 μM. The IC50 value was estimated as the concentration of test compound that caused a 0.6 change in absorbance (with 1.2 absorbance units representing total scavenging of the DPPH radical).

[5] = test system: COX (PGE2 and TXB2 synthesis); assay: LPS-induced prostanoid (PGE2, TXB2) synthesis in human monocytes; assay type: cell-based; conditions: LPS 200 ng/mL, 18 hrs, data at 10 μM
Description: Human peripheral blood monocytes were isolated from buffy coats by lymphoprep gradient separation followed by counter-current centrifugal elutriation. Test compounds were dissolved in DMSO and added to fresh monocytes to achieve concentrations of 0, 10 and 100 μM. After 30 min, lipopolysaccharide (LPS) was added to achieve a final concentration of 200 ng/mL. After incubation for 18 hrs at 37° C. in 5% CO2, supernatants were removed and PGE2 and TXB2 (the stable hydrolysis product of TXA2) production were measured by radioimmunoassay (RIA). ANOVA followed by Newman-Keuls multiple comparisons test was used to examine differences between doses and the control values.

SMILES | AA-induced oedema [2] | melting point [°C] | other results
O=C1c2cc(Cl)c(O)cc2OCC1c1ccc(O)cc1 (stereo not shown) [6-Chloro-4′,7-dihydroxyisoflavan-4-one] |  |  | IC50 [1]: 32.1 µM
CN1C(C(=O)Nc2ccccn2)=C(O)c2ccccc2S1(=O)=O [piroxicam] | did not influence |  | 
COc1ccc2c(c1)c(CC(=O)O)c(C)n2C(=O)c1ccc(Cl)cc1 [indomethacin] | does inhibit |  | 
CC(=O)Oc1ccc(-c2coc3cc(OC(C)=O)cc(C)c3c2=O)cc1 [Example 5, 4′,7-Diacetoxy-5-methylisoflavone] |  | 195 to 197 | 
Cc1c(O)ccc2c1OCC(c1ccc(O)cc1)=C2 [Cpd. 13, 4′,7-Dihydroxy-8-methylisoflav-3-ene] |  | 190 to 193 | contractile response (logEC50) of the aortic ring to noradrenaline [3]: significantly inhibited; strength of the contractile response (Emax) [3]: reduced; ability to scavenge free radicals ([4]; DPPH): limited activity; EC50 ([4]; DPPH 0.1 mM, 20 minutes, read-out: Free radical scavenging ability EC50): 94 µM
CC(C)Cc1ccc(C(C)C(=O)O)cc1 (stereo not shown) [ibuprofen] | did not influence |  | 
Cc1c(O)ccc2c1OCC(c1ccccc1)=C2 [Cpd. 17, 7-Hydroxy-8-methylisoflav-3-ene] |  |  | COX inhibitory activity (inhibition of PGE2 and TXA2 production) [5]: significant COX inhibitory activity
CC(=O)Oc1ccc(C2COc3cc(OC(C)=O)cc(C)c3C2=O)cc1 (stereo not shown) [Example 6, 4′,7-Diacetoxy-5-methylisoflavan-4-one] |  | 143 to 145 | 
CC(=O)Oc1ccccc1C(=O)O [aspirin] | did not influence |  | 
